Reference: ChEMBL document CHEMBL1132921, “Analogues of the potent nonpolyglutamatable antifolate N(alpha)-(4-amino-4-deoxypteroyl)-N(delta)-hemiphthaloyl-L-ornithine (PT523) with modifications in the side chain, p-aminobenzoyl moiety, or 9,10-bridge: synthesis and in vitro antitumor activity” (J Med Chem, 2000)

System: CCRF-CEM
Experiment: Growth inhibition of CCRF-CEM human leukemic lymphoblasts
Assay type: functional, cell-based

IC50 [nM]	Compound
1.2	CCC(Cc1cnc2nc(N)nc(N)c2n1)c1ccc(C(=O)NC(CCCNC(=O)c2ccccc2C(=O)O)C(=O)O)cc1 (centres undefined)
5	Nc1nc(N)c2nc(CNc3ccc(C(=O)NC(CCSCNC(=O)c4ccccc4C(=O)O)C(=O)O)cc3)cnc2n1 (centres undefined)
0.53	Nc1nc(N)c2nc(CCc3ccc(C(=O)NC(CCCNC(=O)c4ccccc4C(=O)O)C(=O)O)cc3)cnc2n1 (centres undefined)
0.63	CC(Cc1cnc2nc(N)nc(N)c2n1)c1ccc(C(=O)NC(CCCNC(=O)c2ccccc2C(=O)O)C(=O)O)cc1 (centres undefined)
55	Nc1nc(N)c2nc(CNc3ccc(C(=O)NC(CCCNC(=O)c4ccc(C(=O)O)cc4)C(=O)O)cc3)cnc2n1 (centres undefined)
1.2	Nc1nc(N)c2nc(CNc3ccc(C(=O)NC(CCCNC(=O)c4ccccc4C(=O)O)C(=O)O)c4ccccc34)cnc2n1 (centres undefined)
7.5	Nc1nc(N)c2nc(CNc3ccc(C(=O)NC(CCCNC(=O)c4cccc(C(=O)O)c4)C(=O)O)cc3)cnc2n1 (centres undefined)
5.5	Nc1nc(N)c2nc(CNc3ccc(C(=O)NC(CCNC(=O)c4ccccc4C(=O)O)C(=O)O)cc3)cnc2n1 (centres undefined)
54	CCC(Cc1cnc2nc(N)nc(N)c2n1)(C(=O)OC)c1ccc(C(=O)NC(CCCNC(=O)c2ccccc2C(=O)O)C(=O)O)cc1 (centres undefined)
4.4	Nc1nc(N)c2nc(CNc3ccc(C(=O)NC(CSCNC(=O)c4ccccc4C(=O)O)C(=O)O)cc3)cnc2n1 (centres undefined)
5.1	Nc1nc(N)c2nc(CNc3ccc(C(=O)NC(CNC(=O)c4ccccc4C(=O)O)C(=O)O)cc3)cnc2n1 (centres undefined)
2.9	Nc1nc(N)c2nc(CNc3ccc(C(=O)NC(CCCCNC(=O)c4ccccc4C(=O)O)C(=O)O)cc3)cnc2n1 (centres undefined)
3.3	CCC(Cc1cnc2nc(N)nc(N)c2n1)c1ccc(C(=O)N[C@@H](CCC(=O)O)C(=O)O)cc1 (some centres undefined) [EDATREXATE]

Compound	IC50 [nM]
Nc1nc(N)c2nc(CNc3ccc(C(=O)N[C@@H](CCC(=O)O)C(=O)O)cc3)cnc2n1 [AMINOPTERIN]	4.4
